Experimental data from ChEMBL document CHEMBL1149623, “Identification of antibacterial and antiviral activities of novel fused 1,2,4-triazine esters” (2007).

Assays:
HEK293 [1] = test: Cytotoxicity against human HEK293 cells at 10 ug/mL after 72 hrs by MTT assay; assay type: functional
HEK293 [2] = test: Cytotoxicity against human HEK293 cells at 25 ug/mL after 72 hrs by MTT assay; assay type: functional
[3] = Cytotoxicity against monkey GMK cells at 200 ug/mL after 96 hrs by MTT assay; assay type: functional, Chlorocebus aethiops
[4] = Cytotoxicity against monkey GMK cells at 2.5 ug/mL after 96 hrs by MTT assay; assay type: functional, Chlorocebus aethiops
[5] = Cytotoxicity against monkey GMK cells at 25 ug/mL after 96 hrs by MTT assay; assay type: functional, Chlorocebus aethiops
HEK293 [6] = test: Cytotoxicity against human HEK293 cells at 10 ug/mL after 120 hrs by MTT assay; assay type: functional
HEK293 [7] = test: Cytotoxicity against human HEK293 cells at 5 ug/mL after 48 hrs by MTT assay; assay type: functional
[8] = Cytotoxicity against monkey GMK cells at 50 ug/mL after 120 hrs by MTT assay; assay type: functional, Chlorocebus aethiops
[9] = Cytotoxicity against monkey GMK cells at 200 ug/mL after 120 hrs by MTT assay; assay type: functional, Chlorocebus aethiops
HEK293 [10] = test: Cytotoxicity against human HEK293 cells at 200 ug/mL after 120 hrs by MTT assay; assay type: functional
HEK293 [11] = test: Cytotoxicity against human HEK293 cells at 2.5 ug/mL after 120 hrs by MTT assay; assay type: functional
[12] = Cytotoxicity against monkey GMK cells at 2.5 ug/mL after 24 hrs by MTT assay; assay type: functional, Chlorocebus aethiops
[13] = Cytotoxicity against monkey GMK cells at 2.5 ug/mL after 120 hrs by MTT assay; assay type: functional, Chlorocebus aethiops
[14] = Cytotoxicity against monkey GMK cells at 25 ug/mL after 72 hrs by MTT assay; assay type: functional, Chlorocebus aethiops
[15] = Cytotoxicity against monkey GMK cells at 100 ug/mL after 120 hrs by MTT assay; assay type: functional, Chlorocebus aethiops
HEK293 [16] = test: Cytotoxicity against human HEK293 cells at 100 ug/mL after 48 hrs by MTT assay; assay type: functional
HEK293 [17] = test: Cytotoxicity against human HEK293 cells at 200 ug/mL after 24 hrs by MTT assay; assay type: functional
[18] = Cytotoxicity against monkey GMK cells at 50 ug/mL after 96 hrs by MTT assay; assay type: functional, Chlorocebus aethiops
Human adenovirus 5 [19] = test: Antiviral activity against Human adenovirus 5 in HEK293 cells assessed as virus titre at 100 ug/mL after 1 hr; assay type: functional
HEK293 [20] = test: Cytotoxicity against human HEK293 cells at 200 ug/mL after 96 hrs by MTT assay; assay type: functional
HEK293 [21] = test: Cytotoxicity against human HEK293 cells at 10 ug/mL after 96 hrs by MTT assay; assay type: functional
[22] = Cytotoxicity against monkey GMK cells at 200 ug/mL after 48 hrs by MTT assay; assay type: functional, Chlorocebus aethiops
[23] = Cytotoxicity against monkey GMK cells at 2.5 ug/mL after 48 hrs by MTT assay; assay type: functional, Chlorocebus aethiops
HEK293 [24] = test: Cytotoxicity against human HEK293 cells at 25 ug/mL after 48 hrs by MTT assay; assay type: functional
HEK293 [25] = test: Cytotoxicity against human HEK293 cells at 10 ug/mL after 24 hrs by MTT assay; assay type: functional
[26] = Cytotoxicity against monkey GMK cells at 50 ug/mL after 48 hrs by MTT assay; assay type: functional, Chlorocebus aethiops
Echovirus E9 [27] = test: Antiviral activity against Human echovirus 9 in GMK cells assessed as virus titre at 200 ug/mL after 1 hr; assay type: functional
HEK293 [28] = test: Cytotoxicity against human HEK293 cells at 10 ug/mL after 48 hrs by MTT assay; assay type: functional
[29] = Cytotoxicity against monkey GMK cells at 50 ug/mL after 72 hrs by MTT assay; assay type: functional, Chlorocebus aethiops
[30] = Cytotoxicity against monkey GMK cells at 100 ug/mL after 24 hrs by MTT assay; assay type: functional, Chlorocebus aethiops
HEK293 [31] = test: Cytotoxicity against human HEK293 cells at 5 ug/mL after 96 hrs by MTT assay; assay type: functional
[32] = Cytotoxicity against monkey GMK cells at 5 ug/mL after 48 hrs by MTT assay; assay type: functional, Chlorocebus aethiops
HEK293 [33] = test: Cytotoxicity against human HEK293 cells at 50 ug/mL after 48 hrs by MTT assay; assay type: functional
HEK293 [34] = test: Cytotoxicity against human HEK293 cells at 2.5 ug/mL after 48 hrs by MTT assay; assay type: functional
[35] = Cytotoxicity against monkey GMK cells at 25 ug/mL after 24 hrs by MTT assay; assay type: functional, Chlorocebus aethiops
[36] = Cytotoxicity against monkey GMK cells at 5 ug/mL after 24 hrs by MTT assay; assay type: functional, Chlorocebus aethiops
HEK293 [37] = test: Cytotoxicity against human HEK293 cells at 5 ug/mL after 120 hrs by MTT assay; assay type: functional
HEK293 [38] = test: Cytotoxicity against human HEK293 cells at 50 ug/mL after 96 hrs by MTT assay; assay type: functional
HEK293 [39] = test: Cytotoxicity against human HEK293 cells at 5 ug/mL after 24 hrs by MTT assay; assay type: functional
[40] = Cytotoxicity against monkey GMK cells at 10 ug/mL after 120 hrs by MTT assay; assay type: functional, Chlorocebus aethiops
[41] = Cytotoxicity against monkey GMK cells at 25 ug/mL after 120 hrs by MTT assay; assay type: functional, Chlorocebus aethiops
HEK293 [42] = test: Cytotoxicity against human HEK293 cells at 200 ug/mL after 72 hrs by MTT assay; assay type: functional
HEK293 [43] = test: Cytotoxicity against human HEK293 cells at 2.5 ug/mL after 24 hrs by MTT assay; assay type: functional
[44] = Cytotoxicity against monkey GMK cells at 5 ug/mL after 120 hrs by MTT assay; assay type: functional, Chlorocebus aethiops
HEK293 [45] = test: Cytotoxicity against human HEK293 cells at 2.5 ug/mL after 96 hrs by MTT assay; assay type: functional
[46] = Cytotoxicity against monkey GMK cells at 100 ug/mL after 72 hrs by MTT assay; assay type: functional, Chlorocebus aethiops
[47] = Cytotoxicity against monkey GMK cells at 10 ug/mL after 48 hrs by MTT assay; assay type: functional, Chlorocebus aethiops
HEK293 [48] = test: Cytotoxicity against human HEK293 cells at 25 ug/mL after 24 hrs by MTT assay; assay type: functional
HEK293 [49] = test: Cytotoxicity against human HEK293 cells at 2.5 ug/mL after 72 hrs by MTT assay; assay type: functional
HEK293 [50] = test: Cytotoxicity against human HEK293 cells at 25 ug/mL after 96 hrs by MTT assay; assay type: functional
[51] = Cytotoxicity against monkey GMK cells at 25 ug/mL after 48 hrs by MTT assay; assay type: functional, Chlorocebus aethiops
HEK293 [52] = test: Cytotoxicity against human HEK293 cells at 200 ug/mL after 48 hrs by MTT assay; assay type: functional
Echovirus E9 [53] = test: Antiviral activity against Human echovirus 9 in GMK cells assessed as virus titre at 100 ug/mL after 1 hr; assay type: functional
[54] = Cytotoxicity against monkey GMK cells at 10 ug/mL after 72 hrs by MTT assay; assay type: functional, Chlorocebus aethiops
HEK293 [55] = test: Cytotoxicity against human HEK293 cells at 50 ug/mL after 72 hrs by MTT assay; assay type: functional
Human adenovirus 5 [56] = test: Antiviral activity against Human adenovirus 5 in HEK293 cells assessed as virus titre at 50 ug/mL after 1 hr; assay type: functional
[57] = Cytotoxicity against monkey GMK cells at 10 ug/mL after 96 hrs by MTT assay; assay type: functional, Chlorocebus aethiops

CCOC(=O)CC1NN=C2N(CCN2c2ccc(C)cc2)C1=O (configuration not stated)
Activity (HEK293 [1]): 100%
Activity (HEK293 [2]): 100%
Activity [3]: 0%
Activity [4]: 100%
Activity [5]: 80%
Activity (HEK293 [6]): 100%
Activity (HEK293 [7]): 100%
Activity [8]: 70%
Activity [9]: 0%
Activity (HEK293 [10]): 15%
Activity (HEK293 [11]): 100%
Activity [12]: 100%
Activity [13]: 100%
Activity [14]: 85%
Activity [15]: 70%
Activity (HEK293 [16]): 80%
Activity (HEK293 [17]): 30%
Activity [18]: 70%
TCID50 (Human adenovirus 5 [19]): 2.5 mL⁻¹
Activity (HEK293 [20]): 15%
Activity (HEK293 [21]): 100%
Activity [22]: 0%
Activity [23]: 100%
Activity (HEK293 [24]): 100%
Activity (HEK293 [25]): 100%
Activity [26]: 80%
TCID50 (Echovirus E9 [27]): 3.67 mL⁻¹
Activity (HEK293 [28]): 100%
Activity [29]: 80%
Activity [30]: 90%
Activity (HEK293 [31]): 100%
Activity [32]: 100%
Activity (HEK293 [33]): 80%
Activity (HEK293 [34]): 100%
Activity [35]: 100%
Activity [36]: 100%
Activity (HEK293 [37]): 100%
Activity (HEK293 [38]): 70%
Activity (HEK293 [39]): 100%
Activity [40]: 90%
Activity [41]: 70%
Activity (HEK293 [42]): 15%
Activity (HEK293 [43]): 100%
Activity [44]: 100%
Activity (HEK293 [45]): 100%
Activity [46]: 70%
Activity [47]: 100%
Activity (HEK293 [48]): 100%
Activity (HEK293 [49]): 100%
Activity (HEK293 [50]): 95%
Activity [51]: 90%
Activity (HEK293 [52]): 20%
TCID50 (Echovirus E9 [53]): 3.67 mL⁻¹
Activity [54]: 100%
Activity (HEK293 [55]): 80%
TCID50 (Human adenovirus 5 [56]): 2.5 mL⁻¹
Activity [57]: 95%
